Results reported in PMC7922564, “Molecular Insights into an Antibiotic Enhancer Action of New Morpholine-Containing 5-Arylideneimidazolones in the Fight against MDR Bacteria” (International Journal of Molecular Sciences, 2021).
In brackets after ≈: the same amount, converted by molar mass. Several values for one entry are separate records, joined by “and”; a condition that tells them apart may be missing. Equal entries are not always repeated.

Legend:
[1] = Water solubility (UV spectroscopy); format: physicochemical
Text: Six representatives of 5-arylideneimidazolones (9–12, 15, 19) were chosen for the determination of water solubility. UV spectroscopy was used for the estimation of concentrations of compounds according to the method described earlier. Acquired UV absorbance, calculated means, and standard deviations for tested compounds are presented in Supplementary Table S18. Solubility results, presented in Table 6, point out that compounds from the same group (A or B, Table 1 and Table 2) with the two-ring aromatic moiety are more soluble than compounds with the fluorene motive (Group A: 9, 10, 11 vs. 12; Group B: 15 vs. 19). […] The most soluble of tested compounds was compound 15, which could be dissolved in water at a concentration of up to 205.502 mM/L.
Water solubility was obtained using UV spectroscopy method. Absorbance of tested solutions of compounds 9-12, 15, and 19, respectively in suitable dilution, in three repetitions as well as calculated arithmetic means, solubility and standard deviations are presented in Table S18. the solubility results […]
Table S18. Results of absorbance used for estimation of water solubility of tested compounds (9-12, 15, 19).
Abbreviations: A1, A2,and A3, UV absorbance in first, second, and third repetition; Amean, arithmetic mean of absorbance from three repetitions; s, standard deviation for absorbance; S, water solubility; SD – standard deviation for solubility. […]

S. aureus ATCC 25923 [2] = tested on: S. aureus ATCC 25923; design: method as in earlier work; conditions: unstarred value; published previously; cited from earlier work
S. aureus ATCC 25923 [3] = tested on: S. aureus ATCC 25923; design: method as in earlier work; conditions: published previously, cited from earlier work
[4] = tested on: K. aerogenes Ea-294, Ea-308; design: method as in earlier work; conditions: doxycycline, chloramphenicol, norfloxacin, already published, cited from earlier work
K. aerogenes Ea-289 = tested on: K. aerogenes Ea-289; design: method as in earlier work; conditions: doxycycline, chloramphenicol, norfloxacin, already published, cited from earlier work
K. aerogenes CM-64 = tested on: K. aerogenes CM-64; design: method as in earlier work; conditions: doxycycline, chloramphenicol, norfloxacin, already published, cited from earlier work
[5] = tested on: AcrAB-TolC efflux pump in K. aerogenes strain Ea-289; design: method as in PMID 30691112; conditions: compound 100 µM; previously described; cited from earlier work

Compound	solubility [1]	MIC value (S. aureus ATCC 25923 [2])	MIC reduction (S. aureus ATCC 25923 [3]; oxacillin alone to oxacillin + compound)	A (activity gain) (S. aureus ATCC 25923 [3]; oxacillin)	MIC reduction ([4]; erythromycin + compound)	A (activity gain) ([4]; erythromycin)	MIC reduction (K. aerogenes Ea-289; erythromycin + compound)	A (activity gain) (K. aerogenes Ea-289; erythromycin)	MIC reduction (K. aerogenes CM-64; erythromycin + compound)	A (activity gain) (K. aerogenes CM-64; erythromycin)	Inhibition efficiency (IE) towards extrusion of 1,2'-dNA [5]
NC1=N/C(=C\c2ccc(-c3ccccc3)cc2)C(=O)N1CCCN1CCOCC1 [Compound 15]	87600 µg/mL and 206000 µM	–	–	–	–	–	–	–	–	–	–
NC1=N/C(=C\c2cccc(Oc3ccccc3)c2)C(=O)N1CCCN1CCOCC1 [Compound 16]	–	125 µM (≈ 50.8 µg/mL)	No effect	1	No effect	1	No effect	1	No effect	1	61%
NC1=N/C(=C\c2ccc3c(c2)Cc2ccccc2-3)C(=O)N1CCCN1CCOCC1 [Compound 19]	8530 µg/mL and 19500 µM	–	–	–	–	–	–	–	–	–	–
